Data reported in US10335455B2, “Method for prevention or treatment of intractable inflammatory bowel disease” (University of Miyazaki, priority 2011, dated 2019).
“Also recorded” adds a separate entry of the source.

How the values were obtained:
[1] = test system: patients with steroid-resistant or steroid-dependent ulcerative colitis; experiment: Continuous intravenous administration of adrenomedullin to patients with intractable ulcerative colitis; type: in vivo, human; settings: for DAI (Average): 6 cases, immediately before administration 9.0 ± 1.4; for Endoscopic findings in the large bowel: maintenance of remission: continuation treatment azathioprine 50 mg/day
[2] = test system: inflammatory bowel disease model; type: in vivo
From the text: Thus, in the adrenomedullin administration, a low dose to an extent not greatly affecting circulatory dynamics is preferably used; a high dose rather makes it worse.

[3] = test system: large bowel artificial ulcer model; experiment: Enema administration to a large bowel artificial ulcer model; type: in vivo; settings: 5.0 μg/kg body weight
[4] = test system: DSS enteritis (diffuse colitis); experiment: Administration in DSS enteritis (diffuse colitis) model; type: in vivo; settings: 2.5 μg/kg body weight
colitis model = settings: Gonzalez et al.; intraperitoneal administration of 12 μg/kg body weight; cited from earlier work
[5] = test system: subjects including normal individuals; experiment: Safety tests of continuous intravenous injection of adrenomedullin in subjects including normal individuals; type: in vivo, human
Experimental: (§1) The safety of continuous intravenous injection of adrenomedullin for 90 minutes was confirmed in 28 subjects including normal individuals. […] In the present Examples, 2 weeks of the animal test period was set to the continuous administration period.

[6] = test system: various disease model animals; experiment: Continuous intravenous injection of adrenomedullin for 1 month in disease model animals; type: in vivo; settings: continuous intravenous injection for 1 month
Experimental: as §1

CC[C@H](C)[C@H](NC(=O)[C@H](CCC(N)=O)NC(=O)[C@H](Cc1c[nH]cn1)NC(=O)[C@H](C)NC(=O)[C@H](CC(C)C)NC(=O)[C@H](CCCCN)NC(=O)[C@H](CCC(N)=O)NC(=O)[C@@H](NC(=O)[C@@H](NC(=O)[C@@H]1CSSC[C@H](NC(=O)CNC(=O)[C@H](Cc2ccccc2)NC(=O)[C@H](CO)NC(=O)[C@H](CCCNC(=N)N)NC(=O)[C@H](CC(C)C)NC(=O)CNC(=O)[C@H](CCC(N)=O)NC(=O)[C@H](Cc2ccccc2)NC(=O)[C@H](CC(N)=O)NC(=O)[C@H](CC(N)=O)NC(=O)[C@H](CCSC)NC(=O)[C@H](CO)NC(=O)[C@H](CCC(N)=O)NC(=O)[C@H](CCCNC(=N)N)NC(=O)[C@@H](N)Cc2ccc(O)cc2)C(=O)N[C@@H](CCCNC(=N)N)C(=O)N[C@@H](Cc2ccccc2)C(=O)NCC(=O)N[C@@H]([C@@H](C)O)C(=O)N1)[C@@H](C)O)C(C)C)C(=O)N[C@@H](Cc1ccc(O)cc1)C(=O)N[C@@H](CCC(N)=O)C(=O)N[C@@H](Cc1ccccc1)C(=O)N[C@H](C(=O)N[C@@H](CC(=O)O)C(=O)N[C@@H](CCCCN)C(=O)N[C@@H](CC(=O)O)C(=O)N[C@@H](CCCCN)C(=O)N[C@@H](CC(=O)O)C(=O)N[C@@H](CC(N)=O)C(=O)N[C@H](C(=O)N[C@@H](C)C(=O)N1CCC[C@H]1C(=O)N[C@@H](CCCNC(=N)N)C(=O)N[C@@H](CO)C(=O)N[C@@H](CCCCN)C(=O)N[C@H](C(=O)N[C@@H](CO)C(=O)N1CCC[C@H]1C(=O)N[C@@H](CCC(N)=O)C(=O)NCC(=O)N[C@@H](Cc1ccc(O)cc1)C(N)=O)[C@@H](C)CC)C(C)C)[C@@H](C)O [adrenomedullin, synthetic human adrenomedullin]
DAI (Average) ([1]; 12 weeks after start of administration, p 0.0001): 1.0 ± 1.15
DAI (Average) ([1]; 14 days after start of administration, 1.5 pmol/kg body weight/min i.v., 8 hours/day, p 0.0028): 5.0 ± 2.4
Mucosal regeneration in the affected areas ([1]; all 6 cases): prominent mucosal regeneration was also confirmed
Remission maintenance ([1]; all 6 cases): remission was maintained
Treatment effects ([1]; all 6 cases of adrenomedullin administration): treatment effects were confirmed in all cases
DAI improvement at 14 days after adrenomedullin administration ([1]; in 4 cases of 6): ≥ 4 points
Blood pressure reduction ([1]; one patient, 1.5 pmol/kg body weight/min during 14 days of administration): ≤ 10 mmHg
Variation in the blood concentration of adrenomedullin immediately after administration ([1]; one patient, 1.5 pmol/kg body weight/min i.v.): smaller than variation due to inflammation
Endoscopic findings in the large bowel: maintenance of remission ([1]; one patient, 3 months after adrenomedullin administration): confirmed the maintenance of the remission; also recorded: Remission maintenance was confirmed
Endoscopic findings in the large bowel: maintenance of remission ([1]; one patient, 12 months after adrenomedullin administration): also confirmed the maintenance of the remission
Endoscopic findings in the large bowel ([1]; one patient, after 14 days of continuous administration, 1.5 pmol/kg body weight/min, 8 hours/day): remission due to adrenomedullin was confirmed; also recorded: marked proliferation of regenerated epithelium (left) and scarring of shallow wide ulcer (right)
Symptoms considered to be side effects ([1]; one patient, during 14 days of administration): not observed
Curve of adrenomedullin dose versus anti-inflammatory/mucosa-repairing effect ([2]; animal experiments): anti-bell shape
Blood pressure reduction at the optimal (low) dose ([2]; in vivo): proved not to cause blood pressure reduction
Effect in large bowel artificial ulcer model [3]: highest
Effect in DSS enteritis (diffuse colitis) [4]: a high effect has also been observed
Efficacy in colitis model (colitis model): has shown the efficacy
Blood pressure reduction ([5]; 2.5 pmol/kg body weight/min, continuous administration for 27 hours): more than 20 mmHg
Safety of continuous intravenous injection ([5]; 90 minutes, 28 subjects including normal individuals): confirmed
Adverse events ([5]; continuous intravenous injection for 27 hours, 12 subjects): no adverse event was observed
Safety and efficacy [6]: confirming the safety and efficacy thereof
